Laboratory results: ChEMBL document CHEMBL5143704, “Discovery of 2,4-diarylaminopyrimidine derivatives bearing dithiocarbamate moiety as novel ALK inhibitors” (Bioorg Med Chem, 2022)

Key:
KARPAS-299 = assay: cells; conditions: Homo sapiens, KARPAS-299, 96 h
Description: Antiproliferative activity against NPM-ALK positive human KARPAS-299 cells assessed as inhibition of cell growth incubated for 96 hrs by CCK-8 assay

NCI-H2228 = assay: cells; conditions: Homo sapiens, NCI-H2228, 96 h
Description: Antiproliferative activity against EML4-ALK positive human NCI-H2228 cells assessed as inhibition of cell growth incubated for 96 hrs by MTT assay

A549 = assay: cells; conditions: Homo sapiens, A549, 96 h
Description: Antiproliferative activity against ALK-negative human A549 cells assessed as inhibition of cell growth incubated for 96 hrs by MTT assay

HCT-116 = assay: cells; conditions: Homo sapiens, HCT-116, 96 h
Description: Antiproliferative activity against ALK-negative human HCT-116 cells assessed as inhibition of cell growth incubated for 96 hrs by MTT assay

[1] = target: ALK tyrosine kinase receptor (Homo sapiens, UniProt Q9UM73); assay: Inhibition of wild type N-terminal GST tagged ALK cytoplasmic domain (1058 to 1620 end residues) (unknown origin) expressed in Sf21 cells incubated for 1 hr in presence of ATP
Chain of ALK tyrosine kinase receptor (Q9UM73 whole entry, the tested form may be a part): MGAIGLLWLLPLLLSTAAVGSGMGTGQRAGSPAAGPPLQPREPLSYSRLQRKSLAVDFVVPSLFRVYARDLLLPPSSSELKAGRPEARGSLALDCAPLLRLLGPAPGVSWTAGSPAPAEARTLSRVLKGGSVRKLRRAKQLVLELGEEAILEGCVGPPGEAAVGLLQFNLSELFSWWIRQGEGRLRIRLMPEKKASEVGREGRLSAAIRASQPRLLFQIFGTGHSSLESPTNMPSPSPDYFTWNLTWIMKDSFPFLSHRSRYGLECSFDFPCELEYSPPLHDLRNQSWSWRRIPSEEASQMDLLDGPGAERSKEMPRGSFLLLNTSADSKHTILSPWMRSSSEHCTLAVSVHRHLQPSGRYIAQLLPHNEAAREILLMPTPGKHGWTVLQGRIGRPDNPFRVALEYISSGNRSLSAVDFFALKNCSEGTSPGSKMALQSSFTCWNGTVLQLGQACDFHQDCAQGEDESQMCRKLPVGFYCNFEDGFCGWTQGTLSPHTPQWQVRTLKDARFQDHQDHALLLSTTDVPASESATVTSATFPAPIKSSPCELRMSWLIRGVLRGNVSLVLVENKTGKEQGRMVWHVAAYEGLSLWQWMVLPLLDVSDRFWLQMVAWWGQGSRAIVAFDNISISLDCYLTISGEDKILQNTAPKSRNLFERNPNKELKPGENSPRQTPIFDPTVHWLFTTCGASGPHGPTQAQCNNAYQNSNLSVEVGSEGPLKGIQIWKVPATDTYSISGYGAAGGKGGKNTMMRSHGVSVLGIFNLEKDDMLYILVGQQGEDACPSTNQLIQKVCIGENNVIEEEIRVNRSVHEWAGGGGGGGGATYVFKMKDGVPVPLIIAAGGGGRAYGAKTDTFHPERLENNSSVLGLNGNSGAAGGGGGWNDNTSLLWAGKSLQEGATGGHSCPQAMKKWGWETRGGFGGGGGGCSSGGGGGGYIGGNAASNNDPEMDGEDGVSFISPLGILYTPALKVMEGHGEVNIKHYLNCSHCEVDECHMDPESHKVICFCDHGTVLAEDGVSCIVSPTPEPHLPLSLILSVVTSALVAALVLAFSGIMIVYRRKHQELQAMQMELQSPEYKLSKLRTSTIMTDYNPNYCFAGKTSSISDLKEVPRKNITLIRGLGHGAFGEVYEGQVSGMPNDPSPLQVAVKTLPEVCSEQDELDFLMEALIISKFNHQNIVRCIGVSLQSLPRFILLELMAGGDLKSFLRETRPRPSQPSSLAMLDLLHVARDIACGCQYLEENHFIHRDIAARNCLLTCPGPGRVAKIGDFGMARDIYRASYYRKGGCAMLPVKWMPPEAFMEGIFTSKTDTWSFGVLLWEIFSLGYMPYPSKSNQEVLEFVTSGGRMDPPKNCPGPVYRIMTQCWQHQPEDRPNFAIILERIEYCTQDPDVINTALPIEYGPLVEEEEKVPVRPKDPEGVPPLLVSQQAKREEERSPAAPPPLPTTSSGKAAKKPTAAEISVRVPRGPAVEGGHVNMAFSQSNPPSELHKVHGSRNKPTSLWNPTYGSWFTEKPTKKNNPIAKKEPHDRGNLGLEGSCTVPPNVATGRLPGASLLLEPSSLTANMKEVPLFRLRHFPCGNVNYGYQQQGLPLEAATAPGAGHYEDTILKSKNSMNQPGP

SMILES | IC50 (KARPAS-299) [nM] | IC50 (NCI-H2228) [nM] | IC50 (A549) [nM] | IC50 (HCT-116) [nM] | IC50 [1] [nM]
Cc1cc(Nc2ncc(Cl)c(Nc3ccccc3S(=O)(=O)C(C)C)n2)c(OC(C)C)cc1C1CCN(C(=O)SCC(=S)N2CCN(C3CCCC3)CC2)CC1 | 1700 | 350 | > 10000 | 5810 | 
Cc1cc(Nc2ncc(Cl)c(Nc3ccccc3S(=O)(=O)C(C)C)n2)c(OC(C)C)cc1C1CCN(C(=S)SCCN2CCCCC2)CC1 | 90 | 280 | > 10000 | 2450 | > 100
Cc1cc(Nc2ncc(Cl)c(Nc3ccccc3S(=O)(=O)C(C)C)n2)c(OC(C)C)cc1C1CCN(C(=S)SCCN(C)C)CC1 | 110 | 180 | > 10000 | 1070 | 
Cc1cc(Nc2ncc(Cl)c(Nc3ccccc3S(=O)(=O)C(C)C)n2)c(OC(C)C)cc1C1CCN(C(=O)SCC(=S)N2CCN(CCO)CC2)CC1 | 80 | 120 | > 10000 | 1530 | 
CCN(CC)C(=S)CSC(=O)N1CCC(c2cc(OC(C)C)c(Nc3ncc(Cl)c(Nc4ccccc4S(=O)(=O)C(C)C)n3)cc2C)CC1 | 440 | 1230 | > 10000 | 2510 | 
Cc1cc(Nc2ncc(Cl)c(Nc3ccccc3S(=O)(=O)C(C)C)n2)c(OC(C)C)cc1C1CCN(C(=O)SCC(=S)N2CCC[C@H]2CO)CC1 | 110 | 220 | > 10000 | 4890 | 
Cc1cc(Nc2ncc(Cl)c(Nc3ccccc3S(=O)(=O)C(C)C)n2)c(OC(C)C)cc1C1CCN(C(=O)SCC(=S)N2CC(C)N(C)C(C)C2)CC1 (stereo not given) | 100 | 210 | > 10000 | 3960 | > 100
Cc1cc(Nc2ncc(Cl)c(Nc3ccccc3S(=O)(=O)C(C)C)n2)c(OC(C)C)cc1C1CCN(C(=S)SCC(=O)NC2CCCCC2)CC1 | 590 | 2660 | > 10000 | 7830 | 
CCN1CCN(C(=S)CSC(=O)N2CCC(c3cc(OC(C)C)c(Nc4ncc(Cl)c(Nc5ccccc5S(=O)(=O)C(C)C)n4)cc3C)CC2)CC1 | 320 | 130 | > 10000 | 2060 | 
Cc1cc(Nc2ncc(Cl)c(Nc3ccccc3S(=O)(=O)C(C)C)n2)c(OC(C)C)cc1C1CCN(C(=S)SCCN2CCN(C)CC2)CC1 | 170 | 270 | > 10000 | 2190 | > 100
CCN(CC)C(=O)CSC(=S)N1CCC(c2cc(OC(C)C)c(Nc3ncc(Cl)c(Nc4ccccc4S(=O)(=O)C(C)C)n3)cc2C)CC1 | 270 | 860 | > 10000 | 4740 | 
CCN(CC)CCCSC(=S)N1CCC(c2cc(OC(C)C)c(Nc3ncc(Cl)c(Nc4ccccc4S(=O)(=O)C(C)C)n3)cc2C)CC1 | 500 | 490 | > 10000 | > 10000 | > 100
Cc1cc(Nc2ncc(Cl)c(Nc3ccccc3S(=O)(=O)C(C)C)n2)c(OC(C)C)cc1C1CCN(C(=O)SCC(=S)N2CCN(S(C)(=O)=O)CC2)CC1 | 340 | 160 | > 10000 | 3540 | 
CCN(CC)CCSC(=S)N1CCC(c2cc(OC(C)C)c(Nc3ncc(Cl)c(Nc4ccccc4S(=O)(=O)C(C)C)n3)cc2C)CC1 | 260 | 230 | > 10000 | 980 | 
Cc1cc(Nc2ncc(Cl)c(Nc3ccccc3S(=O)(=O)C(C)C)n2)c(OC(C)C)cc1C1CCN(C(=O)SCC(=S)N(C)C)CC1 | 230 | 850 | > 10000 | 2730 | 
Cc1cc(Nc2ncc(Cl)c(Nc3ccccc3S(=O)(=O)C(C)C)n2)c(OC(C)C)cc1C1CCN(C(=O)SCC(=S)N(C)CCN(C)C)CC1 | 480 | 370 | > 10000 | 6550 | 
Cc1cc(Nc2ncc(Cl)c(Nc3ccccc3S(=O)(=O)C(C)C)n2)c(OC(C)C)cc1C1CCNCC1 [CERITINIB] |  | 30 |  | 1070 | 

Results, then the compound that gave them:

IC50 (KARPAS-299) [nM] | IC50 (NCI-H2228) [nM] | IC50 (A549) [nM] | IC50 (HCT-116) [nM] | IC50 [1] [nM] | SMILES
220 | 280 | 1720 | 4670 |  | Cc1cc(Nc2ncc(Cl)c(Nc3ccccc3S(=O)(=O)C(C)C)n2)c(OC(C)C)cc1C1CCN(C(=S)SCCN2CCCC2)CC1
150 | 1320 | > 10000 | 3330 |  | Cc1cc(Nc2ncc(Cl)c(Nc3ccccc3S(=O)(=O)C(C)C)n2)c(OC(C)C)cc1C1CCN(C(=S)SCC(=O)N2CCCCC2)CC1
150 | 380 | > 10000 | 3360 |  | Cc1cc(Nc2ncc(Cl)c(Nc3ccccc3S(=O)(=O)C(C)C)n2)c(OC(C)C)cc1C1CCN(C(=O)SCC(=S)N2CCCCC2)CC1
100 | 1600 | > 10000 | > 10000 |  | Cc1cc(Nc2ncc(Cl)c(Nc3ccccc3S(=O)(=O)C(C)C)n2)c(OC(C)C)cc1C1CCN(C(=S)SCC(=O)N2CCOCC2)CC1
140 | 320 | > 10000 | 2700 | > 100 | Cc1cc(Nc2ncc(Cl)c(Nc3ccccc3S(=O)(=O)C(C)C)n2)c(OC(C)C)cc1C1CCN(C(=O)SCC(=S)N2CCN(C)CC2)CC1
860 | 1210 | > 10000 | 3170 |  | Cc1cc(Nc2ncc(Cl)c(Nc3ccccc3S(=O)(=O)C(C)C)n2)c(OC(C)C)cc1C1CCN(C(=O)SCC(=S)N2CCCC2)CC1
210 | 160 | > 10000 | 2840 | > 100 | Cc1cc(Nc2ncc(Cl)c(Nc3ccccc3S(=O)(=O)C(C)C)n2)c(OC(C)C)cc1C1CCN(C(=O)SCC(=S)N2CCNC(C)C2)CC1 (stereo not given)
180 | 270 | > 10000 | 8150 |  | Cc1cc(Nc2ncc(Cl)c(Nc3ccccc3S(=O)(=O)C(C)C)n2)c(OC(C)C)cc1C1CCN(C(=S)SCC(N)=O)CC1
120 | 650 | > 10000 | 4950 |  | Cc1cc(Nc2ncc(Cl)c(Nc3ccccc3S(=O)(=O)C(C)C)n2)c(OC(C)C)cc1C1CCN(C(=O)SCC(=S)N2CCOCC2)CC1
230 | 350 | > 10000 | 5280 |  | Cc1cc(Nc2ncc(Cl)c(Nc3ccccc3S(=O)(=O)C(C)C)n2)c(OC(C)C)cc1C1CCN(C(=O)SCC(=S)N2CCSCC2)CC1
80 | 630 | > 10000 | 3860 |  | Cc1cc(Nc2ncc(Cl)c(Nc3ccccc3S(=O)(=O)C(C)C)n2)c(OC(C)C)cc1C1CCN(C(=S)SCC(=O)N2CCSCC2)CC1
140 | 360 | > 10000 | > 10000 |  | Cc1cc(Nc2ncc(Cl)c(Nc3ccccc3S(=O)(=O)C(C)C)n2)c(OC(C)C)cc1C1CCN(C(=S)SCC(=O)NC(C)C)CC1
250 | 1540 | > 10000 | 5930 |  | Cc1cc(Nc2ncc(Cl)c(Nc3ccccc3S(=O)(=O)C(C)C)n2)c(OC(C)C)cc1C1CCN(C(=S)SCC(=O)N(C)C)CC1
310 | 2030 | > 10000 | 5460 |  | Cc1cc(Nc2ncc(Cl)c(Nc3ccccc3S(=O)(=O)C(C)C)n2)c(OC(C)C)cc1C1CCN(C(=S)SCC(=O)N2CCC(C)CC2)CC1
320 | 170 | > 10000 | 3780 |  | Cc1cc(Nc2ncc(Cl)c(Nc3ccccc3S(=O)(=O)C(C)C)n2)c(OC(C)C)cc1C1CCN(C(=S)SCCN2CCOCC2)CC1
130 | 410 | > 10000 | 3520 |  | Cc1cc(Nc2ncc(Cl)c(Nc3ccccc3S(=O)(=O)C(C)C)n2)c(OC(C)C)cc1C1CCN(C(=S)SCC(=O)NC2CCCC2)CC1
140 | 450 | > 10000 | 7030 |  | Cc1cc(Nc2ncc(Cl)c(Nc3ccccc3S(=O)(=O)C(C)C)n2)c(OC(C)C)cc1C1CCN(C(=S)SCC(=O)NC2CCC2)CC1
